Values joined by “and” are separate entries in the source; they are usually repeats but may differ in a detail not shown here. Equal entries are not always repeated. ± gives the expanded uncertainty stated by the source.
Settings: 313.15 K; Liquid; Ebulliometric method (Recirculating still)

vapor or sublimation pressure | Structure (SMILES)
44.95 ± 0.22 kPa | C=CCCCC [hex-1-ene]
12.33 ± 0.088 kPa and 12.33 ± 0.087 kPa | CCCCCCC [heptane]
24.61 ± 0.14 kPa and 24.62 ± 0.14 kPa | C1CCCCC1 [cyclohexane]
